Measurements taken from US20250073207A1, “PSILOCIN BENZOATE FORMULATION FOR I[…]” (Eleusis Therapeutics US, Inc., priority 2022, published 2025).

Key:
[1] = Stability in solution of psilocin free base versus benzoate salt; conditions: prone to oxidation
[2] = Solubility testing of psilocin benzoate salt in potential intravenous vehicles
Protocol: Solubility of the psilocin benzoate salt was assessed in a range of potential intravenous vehicles. […] Each vehicle was degassed by sonication prior to use.
The pH of each formulation was measured and samples for assay analysis from each formulation were taken following preparation and then again following 6 hours bench top storage at ambient temperature.

| Structure (SMILES) | stability in solution [1] | solubility under saturating conditions ([2]; all of the vehicles on test) | limit of solubility ([2]; in aqueous solution) |
| --- | --- | --- | --- |
| CN(C)CCc1c[nH]c2cccc(O)c12 [Psilocin] | highly unstable in solution |  |  |
| CN(C)CCc1c[nH]c2cccc(O)c12.O=C(O)c1ccccc1 [psilocin benzoate] | more stable | partially soluble | approximately 4 mg/ml |
